Source: patent US10016432B2 (Legacy Emanuel Hospital & Health Center, priority 2016, dated 2018)
pIC50, pKi: −log10 of the molar value. Several values for one entry are separate records, joined by “and”; a condition that tells them apart may be missing. Equal entries are not always repeated. Entries after “also recorded” stand apart in the source; their conditions may differ. Blank lines part the entries; values can stand above or below the compound they belong to.

How the values were obtained:
human P2Y1 = target: T1, human P2Y1 (Homo sapiens, UniProt P47900); assay: calcium transients, P2Y1 in 1321N1 astrocytoma cells; format: cell-based; conditions: 10 μM
T1 construct: expressed in transfected cells; host or cells: 1321N1 astrocytoma cells
From the text: (§1) It is possible that transient treatment with AdK inhibitors would have long-lasting therapeutic benefits for treatment of CNS disorders, not only by raising the basal level of AR activation but also through epigenetic reprogramming. […] SAH in turn inhibits DNA methyltransferases through product inhibition. Because the epigenetic effects related to changes in the DNA methylation status would persist, it might be possible to reduce the duration of drug administration, thus avoiding toxicities associated with prolonged, chronic dosing. A transient dosing regimen might also avoid possible side effects, such as liver toxicity. Compound 38a was submitted to the Psychoactive Drug Screening Program (PDSP) for screening at 45 receptors, channels and transporters. […] Nevertheless, the offtarget interactions of the present set of compounds would have to be examined more extensively.

DNMT activity = DNMT activity in brain nuclear protein extracts of treated mice; format: in vivo, Swiss Webster mice; conditions: 3.1 mg/kg i.p., 3 doses every 12 hours, 1 hour after 3rd dose, vs vehicle
Protocol: (§2) Epigenetic activity in the brain. […] Tissue was harvested 1 hour after the 3rd dose.

human P2Y2 = target: T2, human P2Y2 (Homo sapiens, UniProt P41231); assay: calcium transients, P2Y2 in 1321N1 astrocytoma cells; format: cell-based; conditions: 10 μM
T2 construct: expressed in transfected cells; host or cells: 1321N1 astrocytoma cells
From the text: as §1

[1] = tested on: Hippocampal DNA methylation; assay: hippocampal / brain DNA methylation in treated mice; format: in vivo, Swiss Webster mice; conditions: 3.1 mg/kg i.p., 3 doses every 12 hours, 1 hour after 3rd dose, vs controls
Protocol: as §2

ADK-null cells = assay: DNA methylation in ADK-null cells (off-target); format: cell-based; conditions: vs vehicle
From the text: To test for nonspecific activities of ADK inhibitors on DNA methylation, we tested our set of inhibitors on ADK-null cells, which are hypomethylated and can be used to identify treatments that increase DNA methylation (whereas ADK-L cells display a hypermethylated ceiling effect).

[2] = side effects: mouse activity in an open field; format: in vivo, mice; conditions: epigenetically active dose, i.p.
Protocol: Side effects were indexed by mouse activity in an open field for 20 minutes following a single i.p. injection of vehicle, 5-ITU or compound 38a. […] Data are presented as the mean±SEM and analyzed by one-way ANOVA then uncorrected Fisher's LSD test with all comparisons relative to vehicle or Kruskal-Wallis then Dunn's multiple comparisons.

[3] = target: T3, protease-activated receptor (PAR)1 (Homo sapiens, UniProt P25116); assay: PAR1 agonist/antagonist test in mouse KOLF cells; format: cell-based; conditions: 10 μM
T3 construct: expressed in transfected cells; host or cells: mouse KOLF cells
T3 sequence (P25116 22-425): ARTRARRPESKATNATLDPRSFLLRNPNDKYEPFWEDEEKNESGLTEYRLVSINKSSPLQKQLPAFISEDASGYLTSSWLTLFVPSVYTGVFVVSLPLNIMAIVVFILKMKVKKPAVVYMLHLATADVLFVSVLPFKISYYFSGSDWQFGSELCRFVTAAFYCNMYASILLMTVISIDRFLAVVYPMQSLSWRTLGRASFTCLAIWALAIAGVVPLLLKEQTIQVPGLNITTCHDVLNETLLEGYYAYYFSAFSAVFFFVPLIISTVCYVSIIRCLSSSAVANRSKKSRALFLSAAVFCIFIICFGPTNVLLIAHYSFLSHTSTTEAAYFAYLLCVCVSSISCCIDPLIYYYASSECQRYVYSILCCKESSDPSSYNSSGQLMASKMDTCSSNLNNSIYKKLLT
From the text: as §1

ADK-S cells = assay: DNA methylation in ADK-S cells
hAdK [4] = target: T4, hAdK (Homo sapiens, UniProt P55263); assay: commercial nonisotopic spectrophotometric hAdK kinetic activity assay (340 nm, inosine as substrate); format: biochemical
T4 construct: purchased
Protocol: The nucleoside derivatives were tested for inhibitory activity at hAdK using a commercial, nonisotopic assay for the measurement of hAdK kinetic activity based on continuous monitoring of enzymatic activity at 340 nm (appearance of reduced nicotinamide-adenine dinucleotide from a coupled enzymatic reaction). The hAdK-catalyzed phosphorylation of inosine to inosine 5′-monophosphate is coupled to the inosine 5′-monophosphate dehydrogenase-dependent oxidation of the product. […] Percent inhibition of hAdK activity was calculated by determining the slope of the hAdK reaction during the linear phase of the enzymatic reaction (first 40 min) (see Table 1, below). […] Each inhibitor was analyzed at the following concentrations (μM): of 50, 20, 1, 0.50, 0.10, 0.020 and 0.010.

ADK-L cells = assay: DNA methylation (5 mC ELISA) in ADK-L cells; parameters: reduction of DNA methylation in ADK-L cells: dose or concentration left out as unconfirmed; conditions: 24 hours
Protocol: The in vitro IC50 for each conventional ADK inhibitor was selected as the treatment dose. […] Purified genomic DNA (100 ng) was run on a 5-methylcytosine (5 mC) ELISA. Data shown in FIG. 11 are represented as the mean±SEM (n=8-9) and analyzed by one-way ANOVA followed by Tukey's multiple comparisons test (C) or Krus-kal-Wallis test followed by uncorrected Dunn's test with all comparisons relative to ADK-L vehicle (D).

human P2Y11 = target: T5, human P2Y11 (Homo sapiens, UniProt Q96G91); assay: calcium transients, P2Y11 in 1321N1 astrocytoma cells; format: cell-based; conditions: 10 μM
T5 construct: expressed in transfected cells; host or cells: 1321N1 astrocytoma cells
T5 sequence (Q96G91 1-374): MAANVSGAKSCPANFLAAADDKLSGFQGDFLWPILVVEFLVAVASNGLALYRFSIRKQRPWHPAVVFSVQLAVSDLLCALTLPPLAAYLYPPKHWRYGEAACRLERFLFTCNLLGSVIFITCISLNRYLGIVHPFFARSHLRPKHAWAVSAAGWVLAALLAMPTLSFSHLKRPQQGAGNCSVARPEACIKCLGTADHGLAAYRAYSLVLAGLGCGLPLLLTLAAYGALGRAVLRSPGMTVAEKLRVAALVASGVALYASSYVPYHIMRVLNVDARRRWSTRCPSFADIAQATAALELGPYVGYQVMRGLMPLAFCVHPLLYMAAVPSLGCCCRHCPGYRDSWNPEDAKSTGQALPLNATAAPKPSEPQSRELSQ
From the text: as §1

[5] = polarity judged by tendency to dissolve in organic solvents; format: physicochemical; conditions: based on tendency to dissolve in organic solvents
From the text: The bioavailability and the in vivo activity of these inhibitors remain to be determined. Other nucleoside derivatives were protective in seizure models when administered peripherally. […] Among the new (S)-methanocarba AdK inhibitors, 5′-deoxy analogue 38a and especially the fluoro analogues 38b and 38c appear to be the least polar, based on their tendency to dissolve in organic solvents.

[6] = target: human 5HT7 (serotonin) receptor (Homo sapiens, UniProt P34969); assay: PDSP radioligand binding, 5HT7; conditions: read-out: Ki, inhibition of radioligand binding
From the text: as §1

[7] = tested on: 45 receptors, channels and transporters; assay: PDSP screening at 45 receptors, channels and transporters (other off-target sites); format: binding; conditions: 10 μM
From the text: as §1

human P2Y4 = target: T6, human P2Y4 (Homo sapiens, UniProt P51582); assay: calcium transients, P2Y4 in 1321N1 astrocytoma cells; format: cell-based; conditions: 10 μM
T6 construct: expressed in transfected cells; host or cells: 1321N1 astrocytoma cells
From the text: as §1

hAdK [8] = target: T4, hAdK; conditions: read-out: Km as substrate of hAdK; cited from earlier work

T4 sequence (P55263 whole entry): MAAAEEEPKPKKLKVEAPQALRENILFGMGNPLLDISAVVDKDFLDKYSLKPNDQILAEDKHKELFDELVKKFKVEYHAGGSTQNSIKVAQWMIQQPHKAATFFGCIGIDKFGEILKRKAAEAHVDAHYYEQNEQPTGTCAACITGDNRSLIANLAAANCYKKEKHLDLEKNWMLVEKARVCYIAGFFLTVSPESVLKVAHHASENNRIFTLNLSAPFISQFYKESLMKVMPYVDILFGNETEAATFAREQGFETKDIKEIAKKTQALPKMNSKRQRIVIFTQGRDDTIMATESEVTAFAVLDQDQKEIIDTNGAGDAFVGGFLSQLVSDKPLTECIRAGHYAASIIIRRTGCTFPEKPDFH
T6 sequence (P51582 whole entry): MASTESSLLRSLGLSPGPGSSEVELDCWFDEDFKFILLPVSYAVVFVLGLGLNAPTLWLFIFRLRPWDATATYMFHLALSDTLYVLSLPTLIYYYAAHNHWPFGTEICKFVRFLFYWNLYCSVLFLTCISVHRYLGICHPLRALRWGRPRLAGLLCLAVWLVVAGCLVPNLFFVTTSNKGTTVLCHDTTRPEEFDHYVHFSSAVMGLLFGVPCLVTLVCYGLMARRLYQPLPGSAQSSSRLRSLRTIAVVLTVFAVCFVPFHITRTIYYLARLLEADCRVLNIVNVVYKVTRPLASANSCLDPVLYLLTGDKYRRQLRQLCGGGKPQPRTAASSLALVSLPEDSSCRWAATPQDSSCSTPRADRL
Chain of human 5HT7 (serotonin) receptor (P34969 whole entry): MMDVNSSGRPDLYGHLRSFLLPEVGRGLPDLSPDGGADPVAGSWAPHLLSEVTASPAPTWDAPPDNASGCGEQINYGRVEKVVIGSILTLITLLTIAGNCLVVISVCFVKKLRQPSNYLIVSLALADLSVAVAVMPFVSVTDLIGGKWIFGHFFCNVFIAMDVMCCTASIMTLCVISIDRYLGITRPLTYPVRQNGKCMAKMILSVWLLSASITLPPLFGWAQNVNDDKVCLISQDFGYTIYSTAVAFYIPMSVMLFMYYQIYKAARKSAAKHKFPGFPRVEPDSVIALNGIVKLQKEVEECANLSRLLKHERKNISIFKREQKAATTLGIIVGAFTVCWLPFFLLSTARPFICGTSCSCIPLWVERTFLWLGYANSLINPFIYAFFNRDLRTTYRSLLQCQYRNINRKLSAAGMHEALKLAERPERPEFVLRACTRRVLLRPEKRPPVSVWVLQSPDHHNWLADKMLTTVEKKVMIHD
T2 sequence (P41231 whole entry): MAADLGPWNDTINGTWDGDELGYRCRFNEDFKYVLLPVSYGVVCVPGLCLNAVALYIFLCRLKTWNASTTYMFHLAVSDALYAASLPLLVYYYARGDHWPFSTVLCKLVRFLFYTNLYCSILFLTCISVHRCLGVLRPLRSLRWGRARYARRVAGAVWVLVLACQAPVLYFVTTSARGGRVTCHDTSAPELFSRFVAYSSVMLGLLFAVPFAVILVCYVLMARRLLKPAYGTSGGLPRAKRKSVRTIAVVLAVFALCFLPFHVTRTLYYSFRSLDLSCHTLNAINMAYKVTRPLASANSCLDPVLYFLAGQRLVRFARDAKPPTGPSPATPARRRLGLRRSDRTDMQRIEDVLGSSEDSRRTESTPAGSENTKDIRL
T1 sequence (P47900 whole entry): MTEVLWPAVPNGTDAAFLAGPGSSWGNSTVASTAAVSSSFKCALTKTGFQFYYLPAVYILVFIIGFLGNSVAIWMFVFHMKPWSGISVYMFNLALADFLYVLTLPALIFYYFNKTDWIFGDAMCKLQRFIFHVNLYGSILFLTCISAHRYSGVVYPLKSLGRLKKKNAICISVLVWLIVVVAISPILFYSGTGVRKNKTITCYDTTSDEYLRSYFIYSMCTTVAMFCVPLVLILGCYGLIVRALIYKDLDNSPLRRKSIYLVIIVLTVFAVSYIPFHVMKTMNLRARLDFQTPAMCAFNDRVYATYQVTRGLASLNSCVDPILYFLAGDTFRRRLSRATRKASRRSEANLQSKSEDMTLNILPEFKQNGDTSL

- agonist or antagonist activity at P2Y1 (human P2Y1): inactive
- agonist or antagonist activity at P2Y2 (human P2Y2): inactive
- agonist or antagonist activity at PAR1 [3]: inactive
- concentration at which inhibition begins to vary significantly from 2 (hAdK [4]; Bonferroni post hoc vs 2): never significantly varied from 2
- potency relative to reference compound 2 (hAdK [4]; hAdK inhibition): approximately two-fold less potent
- pIC50 (hAdK [4]; hAdK, inosine as substrate, read-out: IC50 for hAdK): > 7.00 and 7.06
- agonist or antagonist activity at P2Y11 (human P2Y11): inactive
- polarity [5]: least polar
- pKi [6]: 6.15
- inhibition of binding at the other off-target sites [7]: < 50%
- agonist or antagonist activity at P2Y4 (human P2Y4): inactive
Structure (SMILES): C[C@@H]1[C@@H](O)[C@@H](O)[C@@]2(n3cc(-c4ccccc4)c4c(Nc5ccccc5)ncnc43)C[C@@H]12 [Compound 38a]
- DNMT activity in brain nuclear protein extracts (DNMT activity): significantly reduced
- DNMT activity in brain nuclear protein extracts (DNMT activity; listed as 38A): reduced
- hippocampal (brain) DNA methylation levels [1]: reduced
- hippocampal (brain) DNA methylation levels ([1]; listed as 38A): reduced; also recorded: reduces DNA methylation in the hippocampus
- effect on DNA methylation in ADK-null cells (non-specific) (ADK-null cells): greater specificity
- effect on DNA methylation in ADK-null cells (non-specific) (ADK-null cells; listed as 38A): no effect on DNA methylation; also recorded: without any off-target effects
- sedation / sedative side effects [2]: not associated with any overt signs of sedation
- effect on DNA methylation in ADK-S cells (ADK-S cells): without any off-target effects
- hAdK inhibition, in words (hAdK [4]): commensurate with 2 at most concentrations
- effect on DNA methylation in ADK-L cells, in words (ADK-L cells; 55 and 38a at 26 nM, known inhibitors at their IC50): reduces DNA methylation specifically in ADK-L cells
- reduction of DNA methylation in ADK-L cells (ADK-L cells; […] nM (equimolar), vs ADK-L vehicle): > 50%

Structure (SMILES): Nc1ncnc2c1ncn2[C@@H]1O[C@H](CO)[C@@H](O)[C@H]1O [adenosine]
- Km (hAdK [8]): 700 nM
